{
  "source": "paper PMC5218480",
  "about": "(PLoS ONE, 2017)",
  "test_system": "MV-4-11 cells",
  "assay": "Gene expression microarray analysis (Affymetrix PrimeView) and GSEA",
  "type": "cell-based, human",
  "set-up": "RFU PODN (11730768_x_at) / Fold change /veh PODN (11730768_x_at) / RFU LINC00158 (11744669_a_at) / Fold change /veh LINC00158 (11744669_a_at) / RFU DUSP10 (11751237_a_at) / Fold change /veh DUSP10 (11751237_a_at) / RFU ID3 (11757404_x_at) / Fold change /veh ID3 (11757404_x_at) / RFU PLEKHG5 (11737974_s_at) / Fold change /veh PLEKHG5 (11737974_s_at) / RFU LRRC4B (11730491_at) / Fold change /veh LRRC4B (11730491_at) / RFU GIMAP4 (11747438_a_at) / Fold change /veh GIMAP4 (11747438_a_at) / RFU KRT8 (11758183_x_at) / Fold change /veh KRT8 (11758183_x_at) / RFU CNN1 (11734310_a_at) / Fold change /veh CNN1 (11734310_a_at) / RFU VPS37D (11726825_at) / Fold change /veh VPS37D (11726825_at) / RFU C10orf10 (11716522_x_at) / Fold change /veh C10orf10 (11716522_x_at) / RFU KIR2DL2 /// KIR2DL4 /// KIR2DL5A /// KIR2DL5B /// KIR2DS1 /// KIR2DS2 /// KIR2DS3 /// KIR2DS4 /// KIR3DL3 /// KIR3DL3 /// KIR3DS1 (11738374_at) / Fold change /veh KIR2DL2 /// KIR2DL4 /// KIR2DL5A /// KIR2DL5B /// KIR2DS1 /// KIR2DS2 /// KIR2DS3 /// KIR2DS4 /// KIR3DL3 /// KIR3DL3 /// KIR3DS1 (11738374_at) / RFU C1QL1 (11718748_at) / Fold change /veh C1QL1 (11718748_at) / RFU TMPRSS4 (11747572_a_at) / Fold change /veh TMPRSS4 (11747572_a_at) / RFU HAMP (11756126_x_at) / Fold change /veh HAMP (11756126_x_at) / RFU RNFT2 (11725882_a_at) / Fold change /veh RNFT2 (11725882_a_at) / RFU NR4A2 (11747474_a_at) / Fold change /veh NR4A2 (11747474_a_at) / RFU ABCC12 (11746883_a_at) / Fold change /veh ABCC12 (11746883_a_at) / RFU TMEM136 (11760407_x_at) / Fold change /veh TMEM136 (11760407_x_at) / RFU CLDN22 /// WWC2 (11732394_at) / Fold change /veh CLDN22 /// WWC2 (11732394_at) / RFU HLA-DPB1 (11760878_x_at) / Fold change /veh HLA-DPB1 (11760878_x_at) / RFU SPINT1 (11716480_a_at) / Fold change /veh SPINT1 (11716480_a_at) / RFU GAP43 (11754022_s_at) / Fold change /veh GAP43 (11754022_s_at) / RFU A4GNT (11735810_at) / Fold change /veh A4GNT (11735810_at) / RFU PRB3 (11715151_x_at) / Fold change /veh PRB3 (11715151_x_at) / RFU TUBB4B (11761932_at) / Fold change /veh TUBB4B (11761932_at) / RFU CAPN14 (11732068_a_at) / Fold change /veh CAPN14 (11732068_a_at) / RFU TMCC2 (11721928_a_at) / Fold change /veh TMCC2 (11721928_a_at) / RFU IRGQ (11745062_a_at) / Fold change /veh IRGQ (11745062_a_at) / RFU FAM174B (11720279_a_at) / Fold change /veh FAM174B (11720279_a_at) / RFU TMPRSS4 (11748680_a_at) / Fold change /veh TMPRSS4 (11748680_a_at) / RFU FAM212B (11763350_a_at) / Fold change /veh FAM212B (11763350_a_at) / RFU PLEKHG5 (11743358_a_at) / Fold change /veh PLEKHG5 (11743358_a_at) / RFU ZSCAN30 (11745921_a_at) / Fold change /veh ZSCAN30 (11745921_a_at) / RFU CMKLR1 (11741424_a_at) / Fold change /veh CMKLR1 (11741424_a_at) / RFU LOC101060620 /// MAPK8IP1 (11723275_at) / Fold change /veh LOC101060620 /// MAPK8IP1 (11723275_at) / RFU SPTSSB (11747773_x_at) / Fold change /veh SPTSSB (11747773_x_at) / RFU PRSS12 (11739890_at) / Fold change /veh PRSS12 (11739890_at) / RFU BIN1 (11741810_x_at) / Fold change /veh BIN1 (11741810_x_at) / RFU WNT11 (11732464_a_at) / Fold change /veh WNT11 (11732464_a_at) / RFU C10orf10 (11716521_a_at) / Fold change /veh C10orf10 (11716521_a_at) / RFU C5orf56 (11738089_at) / Fold change /veh C5orf56 (11738089_at) / RFU CYB561 (11721691_x_at) / Fold change /veh CYB561 (11721691_x_at) / RFU ANKRD19P (11752326_a_at) / Fold change /veh ANKRD19P (11752326_a_at) / RFU OR2T12 /// OR2T33 /// OR2T8 (11738714_s_at) / Fold change /veh OR2T12 /// OR2T33 /// OR2T8 (11738714_s_at) / RFU VCAN (11748164_a_at) / Fold change /veh VCAN (11748164_a_at) / RFU JSRP1 (11732532_at) / Fold change /veh JSRP1 (11732532_at) / RFU KRTAP10-11 (11738290_x_at) / Fold change /veh KRTAP10-11 (11738290_x_at) / RFU MYO3A (11730013_a_at) / Fold change /veh MYO3A (11730013_a_at) / RFU EBF3 (11725865_a_at) / Fold change /veh EBF3 (11725865_a_at) / RFU CAMK2N1 (11719241_x_at) / Fold change /veh CAMK2N1 (11719241_x_at) / RFU C5orf56 (11738088_a_at) / Fold change /veh C5orf56 (11738088_a_at) / RFU OLFML3 (11715873_a_at) / Fold change /veh OLFML3 (11715873_a_at) / RFU LOC100653217 /// NTM (11731650_a_at) / Fold change /veh LOC100653217 /// NTM (11731650_a_at) / RFU MAPK11 (11762145_a_at) / Fold change /veh MAPK11 (11762145_a_at) / RFU FIZ1 (11724087_x_at) / Fold change /veh FIZ1 (11724087_x_at) / RFU OASL (11726364_x_at) / Fold change /veh OASL (11726364_x_at) / RFU SOX15 (11748057_x_at) / Fold change /veh SOX15 (11748057_x_at) / RFU CD79A (11719716_a_at) / Fold change /veh CD79A (11719716_a_at) / RFU HIST1H1D (11736915_at) / Fold change /veh HIST1H1D (11736915_at) / RFU CASKIN2 (11723855_a_at) / Fold change /veh CASKIN2 (11723855_a_at) / RFU LOC730098 (11760151_x_at) / Fold change /veh LOC730098 (11760151_x_at) / RFU OR4N2 (11742367_at) / Fold change /veh OR4N2 (11742367_at) / RFU PRRT2 (11749266_a_at) / Fold change /veh PRRT2 (11749266_a_at) / RFU SNX32 (11753110_a_at) / Fold change /veh SNX32 (11753110_a_at) / RFU CDHR5 (11726645_a_at) / Fold change /veh CDHR5 (11726645_a_at) / RFU RCAN1 (11760418_a_at) / Fold change /veh RCAN1 (11760418_a_at) / RFU FAM167A (11723789_a_at) / Fold change /veh FAM167A (11723789_a_at) / RFU FAM26E (11764081_at) / Fold change /veh FAM26E (11764081_at) / RFU ISYNA1 (11749810_s_at) / Fold change /veh ISYNA1 (11749810_s_at) / RFU ACY1 (11761880_at) / Fold change /veh ACY1 (11761880_at) / RFU 11764098_at / Fold change /veh 11764098_at / RFU SAMD14 (11745864_x_at) / Fold change /veh SAMD14 (11745864_x_at) / RFU NPB (11741838_a_at) / Fold change /veh NPB (11741838_a_at) / RFU TMPRSS6 (11731388_a_at) / Fold change /veh TMPRSS6 (11731388_a_at) / RFU KRTAP10-2 (11738614_at) / Fold change /veh KRTAP10-2 (11738614_at) / RFU ARHGAP8 /// PRR5-ARHGAP8 (11727945_x_at) / Fold change /veh ARHGAP8 /// PRR5-ARHGAP8 (11727945_x_at) / RFU KRTAP5-7 /// NADSYN1 (11734609_at) / Fold change /veh KRTAP5-7 /// NADSYN1 (11734609_at) / RFU RASL12 (11751679_a_at) / Fold change /veh RASL12 (11751679_a_at) / RFU CDKN2B (11736163_a_at) / Fold change /veh CDKN2B (11736163_a_at) / RFU PRF1 (11729649_at) / Fold change /veh PRF1 (11729649_at) / RFU, ZNF638 /// ZNF638-IT1 / Fold change vs veh, ZNF638 /// ZNF638-IT1 / RFU, PANK3 / Fold change vs veh, PANK3 / RFU, SH3YL1 / Fold change vs veh, SH3YL1 / RFU, ZEB2 / Fold change vs veh, ZEB2 / RFU, NRIP1 / Fold change vs veh, NRIP1 / RFU, PTTG1IP / Fold change vs veh, PTTG1IP / RFU, CAPN2 / Fold change vs veh, CAPN2 / RFU, MED14 / Fold change vs veh, MED14 / RFU, SNORA58 / Fold change vs veh, SNORA58 / RFU, C1orf63 / Fold change vs veh, C1orf63 / RFU, LRRFIP1 / Fold change vs veh, LRRFIP1 / RFU, NDUFAF7 / Fold change vs veh, NDUFAF7 / RFU, SLC12A2 / Fold change vs veh, SLC12A2 / RFU, IBTK / Fold change vs veh, IBTK / RFU, ESF1 / Fold change vs veh, ESF1 / Fold change vs veh, TMEM50B / RFU, TAOK1 / Fold change vs veh, TAOK1 / RFU, ACBD3 / Fold change vs veh, ACBD3 / RFU, TMA16 / Fold change vs veh, TMA16 / RFU, RWDD3 / Fold change vs veh, RWDD3 / RFU, BCAT1 / Fold change vs veh, BCAT1 / RFU, EDEM3 / Fold change vs veh, EDEM3 / RFU, TMEM33 / Fold change vs veh, TMEM33 / RFU, WDR75 / Fold change vs veh, WDR75 / RFU, AHCTF1 / Fold change vs veh, AHCTF1 / RFU, TFRC / Fold change vs veh, TFRC / RFU, ZDHHC17 / Fold change vs veh, ZDHHC17 / RFU, NOM1 / Fold change vs veh, NOM1 / RFU, ARL8B / Fold change vs veh, ARL8B / RFU, ZBTB11 / Fold change vs veh, ZBTB11 / RFU, TAMM41 / Fold change vs veh, TAMM41 / RFU, KIAA1704 /// LOC100996395 / Fold change vs veh, KIAA1704 /// LOC100996395 / RFU, ING1 / Fold change vs veh, ING1 / RFU, TRMT61B / Fold change vs veh, TRMT61B / RFU, FUBP3 / Fold change vs veh, FUBP3 / RFU, TP53 / Fold change vs veh, TP53 / RFU, TNKS2 / Fold change vs veh, TNKS2 / RFU, ZFP14 / Fold change vs veh, ZFP14 / RFU, ACTR2 / Fold change vs veh, ACTR2 / RFU, PPP3R1 / Fold change vs veh, PPP3R1 / RFU, PIK3R1 / Fold change vs veh, PIK3R1 / RFU, HNRNPA1 / Fold change vs veh, HNRNPA1 / RFU, RNF170 / Fold change vs veh, RNF170 / RFU, ZNF28 / Fold change vs veh, ZNF28 / RFU, RNGTT / Fold change vs veh, RNGTT / RFU, OGT / Fold change vs veh, OGT / RFU, BRD1 / Fold change vs veh, BRD1 / RFU, MARS / Fold change vs veh, MARS / RFU, ZNF655 / Fold change vs veh, ZNF655 / RFU, FAHD1 / Fold change vs veh, FAHD1 / RFU, BDP1 / Fold change vs veh, BDP1 / RFU, LRRCC1 / Fold change vs veh, LRRCC1 / RFU, ARID1A / Fold change vs veh, ARID1A / RFU, ZNF146 / Fold change vs veh, ZNF146 / RFU, ZNF330 / Fold change vs veh, ZNF330 / RFU, GPN3 / Fold change vs veh, GPN3 / RFU, C9orf123 / Fold change vs veh, C9orf123 / RFU, N4BP2L2 / Fold change vs veh, N4BP2L2 / RFU, ARFIP1 / Fold change vs veh, ARFIP1 / RFU, FAM179B / Fold change vs veh, FAM179B / RFU, BCL10 / Fold change vs veh, BCL10 / RFU, UHRF1BP1L / Fold change vs veh, UHRF1BP1L / RFU, BET1 / Fold change vs veh, BET1 / RFU, CNOT2 / Fold change vs veh, CNOT2 / RFU, ZNF268 / Fold change vs veh, ZNF268 / Fold change vs veh, ZNF507 / RFU, DGCR2 / Fold change vs veh, DGCR2 / RFU, WDSUB1 / Fold change vs veh, WDSUB1 / Fold change vs veh, HSP90B1 /// MIR3652 / RFU, ADSS / Fold change vs veh, ADSS / RFU, GK / Fold change vs veh, GK / RFU, ZNF148 / Fold change vs veh, ZNF148 / RFU, TAF9 / Fold change vs veh, TAF9 / RFU, SLC1A5 / Fold change vs veh, SLC1A5 / RFU, SLMO2 / Fold change vs veh, SLMO2 / RFU, ABCC4 / Fold change vs veh, ABCC4 / RFU, LOC101060439 /// RAP1B / Fold change vs veh, LOC101060439 /// RAP1B / RFU, RFX7 / Fold change vs veh, RFX7 / RFU, GTPBP10 / Fold change vs veh, GTPBP10 / RFU, CNEP1R1 / Fold change vs veh, CNEP1R1 / RFU, BIVM-ERCC5 /// ERCC5 / Fold change vs veh, BIVM-ERCC5 /// ERCC5 / RFU, ILF3 / Fold change vs veh, ILF3 / RFU 11762660_at / Fold change /veh 11762660_at / RFU VCAN (11757783_s_at) / Fold change /veh VCAN (11757783_s_at) / RFU DDX43 (11728927_at) / Fold change /veh DDX43 (11728927_at) / RFU KRT8 (11758188_x_at) / Fold change /veh KRT8 (11758188_x_at) / RFU NKD1 (11759106_at) / Fold change /veh NKD1 (11759106_at) / RFU SRD5A1 (11742802_a_at) / Fold change /veh SRD5A1 (11742802_a_at) / RFU TPSAB1 /// TPSB2 (11721975_s_at) / Fold change /veh TPSAB1 /// TPSB2 (11721975_s_at) / RFU GSTM3 (11746129_a_at) / Fold change /veh GSTM3 (11746129_a_at) / RFU IL23R (11737362_x_at) / Fold change /veh IL23R (11737362_x_at) / RFU TMEM51 (11727254_a_at) / Fold change /veh TMEM51 (11727254_a_at) / RFU PIWIL2 (11732686_x_at) / Fold change /veh PIWIL2 (11732686_x_at) / RFU ORM1 (11744905_x_at) / Fold change /veh ORM1 (11744905_x_at) / RFU CCDC152 (11743942_at) / Fold change /veh CCDC152 (11743942_at) / RFU ECM1 (11717891_a_at) / Fold change /veh ECM1 (11717891_a_at) / RFU IL23R (11748794_a_at) / Fold change /veh IL23R (11748794_a_at) / RFU TNFAIP8L3 (11732012_x_at) / Fold change /veh TNFAIP8L3 (11732012_x_at) / RFU MBOAT4 (11741988_at) / Fold change /veh MBOAT4 (11741988_at) / RFU 11764193_at / Fold change /veh 11764193_at / RFU TMEM53 (11763286_at) / Fold change /veh TMEM53 (11763286_at) / RFU MAGEB2 (11727129_at) / Fold change /veh MAGEB2 (11727129_at) / RFU TMEM200A (11744735_a_at) / Fold change /veh TMEM200A (11744735_a_at) / RFU CCDC152 (11751479_a_at) / Fold change /veh CCDC152 (11751479_a_at) / RFU FAM211A (11726209_a_at) / Fold change /veh FAM211A (11726209_a_at) / RFU RGS16 (11746705_a_at) / Fold change /veh RGS16 (11746705_a_at) / RFU VCAN (11755009_s_at) / Fold change /veh VCAN (11755009_s_at) / RFU RHOB (11743442_s_at) / Fold change /veh RHOB (11743442_s_at) / RFU RGS16 (11720943_a_at) / Fold change /veh RGS16 (11720943_a_at) / RFU RGS16 (11720944_at) / Fold change /veh RGS16 (11720944_at) / RFU, VPS4B / Fold change vs veh, VPS4B / RFU, CREB1 / Fold change vs veh, CREB1 / RFU, DNAJC13 / Fold change vs veh, DNAJC13 / RFU, GNAQ / Fold change vs veh, GNAQ / RFU, CDK5R1 / Fold change vs veh, CDK5R1 / RFU, ZRANB3 / Fold change vs veh, ZRANB3 / RFU, CUL4A / Fold change vs veh, CUL4A / RFU, CCNY / Fold change vs veh, CCNY / RFU, UFL1 / Fold change vs veh, UFL1 / RFU, COG3 / Fold change vs veh, COG3 / RFU, DIAPH2 / Fold change vs veh, DIAPH2 / RFU, SKA2 / Fold change vs veh, SKA2 / RFU, AFF3 / Fold change vs veh, AFF3 / RFU, LMF1 / Fold change vs veh, LMF1 / RFU, IPO11 / Fold change vs veh, IPO11 / RFU, DFFB / Fold change vs veh, DFFB / RFU, FOXP1 / Fold change vs veh, FOXP1 / RFU, CARD8 / Fold change vs veh, CARD8 / RFU, STRN3 / Fold change vs veh, STRN3 / RFU, ADK / Fold change vs veh, ADK / RFU, RASSF2 / Fold change vs veh, RASSF2 / RFU, WIPF1 / Fold change vs veh, WIPF1 / RFU, LARP1B / Fold change vs veh, LARP1B / RFU, RASA1 / Fold change vs veh, RASA1 / RFU, RB1 / Fold change vs veh, RB1 / RFU, PPFIA1 / Fold change vs veh, PPFIA1 / RFU, MAT2A / Fold change vs veh, MAT2A / RFU, CCT5 / Fold change vs veh, CCT5 / RFU, WDR92 / Fold change vs veh, WDR92 / RFU, CUX1 / Fold change vs veh, CUX1 / RFU, TTC7A / Fold change vs veh, TTC7A / RFU, TMEM135 / Fold change vs veh, TMEM135 / RFU, DEPTOR / Fold change vs veh, DEPTOR / RFU, CPM / Fold change vs veh, CPM / RFU, DNAJB6 / Fold change vs veh, DNAJB6 / RFU, CACNA2D3 / Fold change vs veh, CACNA2D3 / RFU, DTX4 / Fold change vs veh, DTX4 / RFU, TFCP2 / Fold change vs veh, TFCP2 / RFU, GMCL1 /// GMCL1P1 / Fold change vs veh, GMCL1 /// GMCL1P1 / RFU, AEBP2 / Fold change vs veh, AEBP2 / RFU, SNHG1 /// SNORD22 /// SNORD25 /// SNORD26 /// SNORD27 /// SNORD28 /// SNORD29 /// SNORD31 / Fold change vs veh, SNHG1 /// SNORD22 /// SNORD25 /// SNORD26 /// SNORD27 /// SNORD28 /// SNORD29 /// SNORD31 / Fold change (Aza/veh), C12orf56 (ProbeSet 11735607_a_at) / Fold change (ACY-1035/veh), C12orf56 (ProbeSet 11735607_a_at) / Fold change (Aza/veh), FGFR1OP (ProbeSet 11751329_s_at) / Fold change (ACY-1035/veh), FGFR1OP (ProbeSet 11751329_s_at) / Fold change (Aza/veh), VPS36 (ProbeSet 11739960_a_at) / Fold change (ACY-1035/veh), VPS36 (ProbeSet 11739960_a_at) / RFU SYPL1 (11715823_x_at) / Fold change /veh SYPL1 (11715823_x_at) / RFU IGFBP7 (11715501_s_at) / Fold change /veh IGFBP7 (11715501_s_at) / RFU REEP3 (11722064_at) / Fold change /veh REEP3 (11722064_at) / RFU IGLL1 (11728026_x_at) / Fold change /veh IGLL1 (11728026_x_at): dose or concentration left out as unconfirmed",
  "conditions": "MV-4-11 cells, 48 hours",
  "data": [
    {"molecule": "Nc1ncn([C@@H]2O[C@H](CO)[C@@H](O)[C@H]2O)c(=O)n1", "note": "[azacitidine]", "values": [
      {"measurement": "RFU ARHGAP8 /// PRR5-ARHGAP8 (11727945_x_at)", "value": 97.01, "unit": "RFU"}
    ]}
  ]
}
